Patent US6787650B1, “Urea compounds, process for producing the same and use thereof” (Takeda Chemical Industries, Ltd., priority 1999, dated 2004)
Counter-ions that a name gives are not always drawn.

Columns and labels:
human CCR5 = biological target: T1, human CCR5 (Homo sapiens, UniProt P51681); test: Inhibition of [125I]-RANTES binding to CHO/CCR5 cells (CCR5 antagonistic activity); conditions: 1.0 μM test compound, 100 pM [125I]-RANTES, room temperature, 40 minutes; for inhibition at 1 µM: read-out: Inhibition Rate (%) at 1.0 μM
T1 construct: expressed in transfected cells
Method: Cloning of CCR5 gene was carried out by PCR (polymerase chain reaction) from human spleen cDNA. With using 0.5 ng of spleen cDNA (Toyobo, QUICK-Clone cDNA) as a template, PCR was performed in DNA Thermal Cycler 480 (Perkin-Elmer) (reaction conditions: 30 cycles of 95° C. for 1 minute, 60° C. for 1 minute, and 75° C. for 5 minutes) by adding primer set, 5′-[…]-3′ (25 pmol) and 5′-[…]-3′ (25 pmol), which were designed referring to nucleotide sequence of CCR5 gene reported by Samson et al. (Biochemistry, 35 (11), 3362-3367 (1996)) and by using TaKaRa EX Taq (Takara Shuzo). The resultant PCR product was subjected to agarose gel electrophoresis to collect about 1.0 kb DNA fragment, which was subjected to Original TA Cloning Kit (Funakoshi) to carry out cloning of CCR5 gene.
The plasmid obtained in the above (1) was digested with restriction enzymes XbaI (Takara Shuzo) and BamHI (Takara Shuzo) and subjected to agarose gel electrophoresis to collect about 1.0 kb DNA fragment. The DNA fragment was mixed with plasmid pcDNA3.1 (Funakoshi) for expression in animal cells, said plasmid being digested with XbaI and BamHI, and they were ligated with DNA Ligation Kit Ver.2 (Takara Shuzo). The resulting plasmid was subjected to transformation of competent cell of E. coli JM109 (Takara Shuzo) to give plasmid pCKR5.
CHO-K1 cells were grown in 750 ml of tissue culture flask (Becton Dickinson) using Ham's F12 medium (Nihon Pharmaceutical) containing 10% fetal calf serum (Life Tech Oriental) and took off with 0.5 g/L trypsin-0.2 g/L EDTA (Life Tech Oriental). The cells were washed with PBS (Life Tech Oriental), centrifuged (1000 rpm, 5 minutes), and suspended in PBS. With using Gene Pulser (Bio-Rad Laboratories), DNA was introduced into the cells under the conditions shown below. That is, to the cuvette having 0.4 cm gap were added 8×10^6 cells and 10 μg of plasmid pCKR5 for expression of human CCR5, and electroporation was carried out under 0.25 kV of voltage and 960 μF of capacitance. The cells were transferred into Ham's F12 medium containing 10% fetal calf serum, and cultivated for 24 hours. The cells were again took off and centrifuged, and suspended in Ham's F12 medium containing 10% fetal calf serum and 500 μg/ml of geneticin (Life Tech Oriental). The suspension was diluted to give 10^4 cells/ml of the suspension, which was inoculated on 96 well plate (Becton Dickinson) to give geneticin resistant cells.
Then, the resulting geneticin resistant cells were cultivated in 96 well plate (Becton Dickinson), and cells expressing CCR5 were selected from the geneticin resistant cells. That is, in an assay buffer (Ham's F12 medium containing 0.5% BSA and 20 mM HEPES (Wako Pure Chemical, pH 7.2) to which was added 200 pM of [^125I]-RANTES (Amersham) as a ligand, binding reaction was carried out at room temperature for 40 minutes, and the buffer was washed with ice-cooled PBS. To the buffer was added 50 μl/well of 1M NaOH, and the mixture was stirred. Radioactivity was determined with γ-counter to select CHO/CCR5 cells which specifically bound with the ligand.
(4) Evaluation of Test Compounds Based on CCR5 Antagonistic Activity
The CHO/CCR5 were inoculated on 96 well microplate (5×10^4 cells/well) and cultivated for 24 hours. The medium was removed by means of suction, and to each well was added assay buffer containing Test Compound (1 μl) and then 100 pM of [^125I]-RANTES (Amersham) as a ligand. The reaction was carried out at room temperature for 40 minutes, and assay buffer was removed by means of suction. Each well was washed twice with cooled PBS, and 200 μl of Microscinti-20 (Packard Instrument, Inc.) was added to each well. Radioactivity was determined with Top-Count Micro Scintillation Counter (Packard Instrument, Inc.).
According to the method described above, the inhibition rate of the test compounds for CCR5 binding was determined.

HIV-1 Ba-L = test: Inhibitory effect on HIV-1 infection to MAGI-CCR5 cell; type: cell-based; conditions: Human immunodeficiency virus 1, BAL, 48 h; final concentration 0.16 μM; MAGI-CCR5 cells; 300PFU HIV-1 Ba-L; 37° C., 2 days; blue cells counted
Method: (5) Inhibitory Effect on HIV-1 Infection to MAGI-CCR5 Cell
The plasmid where β-galactosidase gene was ligated to the downstream of HIV-1 LTR was introduced into CD4 positive HeLa cell, to which human CCR^5 was further introduced to obtain transformant MAGI-CCR5. By using said transformant MAGI-CCR5, the degree of HIV-1 infection was calculated from β-galactosidase activity (blue color due to decomposition of 5-bromo-4-chloro-3-indolyl-β-D-galactopyranoside). Specifically, MAGI-CCR5 cells were suspended in DMEM medium containing 10% serum to prepare 5×10^4 cells/ml suspension. To each well of 96 well plate was inoculated 200 μl of the suspension, and the cells were cultivated at 37° C. overnight. The medium was removed by means of suction, and to the residue was added 100 μl of the above medium containing 0.32 μM of Test Compound and 100 μl of the above medium containing 300PFU of HIV-1 Ba-L cells. The final concentration of the test compound was 0.16 μM. The cells were cultivated at 37° C. for 2 days. The medium was removed by means of suction. To the residue was added 200 μl of cell fixative (PBS containing 1% formaldehyde and 0.2% glutaraldehyde), and the mixture was allowed to stand at room temperature for 5 minutes and washed twice with PBS. […] The number of blue cells was counted by microscope and defined as the number of cells infected with HIV-1.

T1 sequence (P51681 whole entry): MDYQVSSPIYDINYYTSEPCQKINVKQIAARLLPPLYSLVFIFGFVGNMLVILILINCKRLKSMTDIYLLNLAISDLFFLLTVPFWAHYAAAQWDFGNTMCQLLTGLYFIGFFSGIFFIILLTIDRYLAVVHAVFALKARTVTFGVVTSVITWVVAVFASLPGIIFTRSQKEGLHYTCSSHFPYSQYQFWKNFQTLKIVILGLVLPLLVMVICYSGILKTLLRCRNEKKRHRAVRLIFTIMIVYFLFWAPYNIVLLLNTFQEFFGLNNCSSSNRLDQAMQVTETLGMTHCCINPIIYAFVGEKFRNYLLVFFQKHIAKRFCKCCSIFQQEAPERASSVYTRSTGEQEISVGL

| SMILES | inhibition at 1 µM (human CCR5) [%] | melting point [°C] | also measured |
| --- | --- | --- | --- |
| O=C(Nc1ccccc1)N(CCCN1CCC(Cc2ccccc2)CC1)c1ccccc1 [Example 1, N-[3-(4-Benzyl-1-piperidinyl)propyl]-N-phenyl-N′-phenylurea hydrochloride] | 96 |  |  |
| O=C(Nc1ccc(Cl)cc1)N(CCCN1CCC(Cc2ccccc2)CC1)c1ccccc1 [Example 2, N-[3-(4-Benzyl-1-piperidinyl)propyl]-N′-(4-chlorophenyl)-N-phenylurea] |  | 101 to 103 |  |
| O=C(NC1CCCCC1)N(CCCN1CCC(Cc2ccccc2)CC1)c1ccccc1 [Example 6, N-[3-(4-Benzyl-1-piperidinyl)propyl]-N′-cyclohexyl-N-phenylurea] |  | 106 to 108 |  |
| CCCNC(=O)N(CCCN1CCC(Cc2ccccc2)CC1)c1ccccc1 [Example 7, N-[3-(4-Benzyl-1-piperidinyl)propyl]-N-phenyl-N′-propylurea] | 92 |  |  |
| O=C(Nc1ccc(Cl)cc1)N(CCCN1CCC(Cc2ccc(S(=O)(=O)N3CCOCC3)cc2)CC1)c1ccccc1 [Example 71, N′-(4-Chlorophenyl)-N-(3-{4-[4-(4-morpholinylsulfonyl)benzyl]-1-piperidinyl}propyl)-N-phenylurea hydrochloride] | 98 |  |  |
| CS(=O)(=O)c1ccc(CC2CCN(CCCN(C(=O)Nc3ccc(Cl)cc3)c3ccccc3)CC2)cc1.Cl [Example 72, N′-(4-Chlorophenyl)-N-(3-{4-[4-(4-methylsulfonyl)benzyl]-1-piperidinyl}propyl)-N-phenylurea hydrochloride] |  |  | Inhibition Rate (%) at 1.0 μM (human CCR5): 94% |
| O=C(Nc1ccc(Cl)cc1)N(CCCN1CCC(Cc2ccccc2)CC1)c1ccccc1 [Example 76, N-[3-(4-Benzyl-1-piperidinyl)propyl]-N′-(4-chlorophenyl)-N-phenylurea hydrochloride] |  |  | inhibition at 0.16 µM (HIV-1 Ba-L): 98% |

Second part, led by results:

| inhibition at 1 µM (human CCR5) [%] | melting point [°C] | SMILES | also measured |
| --- | --- | --- | --- |
| 100 |  | Cc1ccc(N(CCCN2CCC(Cc3ccccc3)CC2)C(=O)Nc2ccc(Cl)cc2)cc1 [Example 10, N-[3-(4-Benzyl-1-piperidinyl)propyl]-N′-(4-chlorophenyl)-N-(4-methylphenyl)urea hydrochloride] |  |
| 92 |  | O=C(Nc1ccc(Cl)cc1)N(CCCN1CCC(Cc2ccc(F)cc2)CC1)c1ccc(Cl)c(Cl)c1 [Example 12, N′-(4-Chlorophenyl)-N-(3,4-dichlorophenyl)-N-{3-[4-(4-fluorobenzyl)-1-piperidinyl]propyl}urea] |  |
| 67 | 124 to 127 | O=C(Nc1cccc2ccccc12)N(CCCN1CCC(Cc2ccccc2)CC1)c1ccccc1 [Example 13, N-[3-(4-Benzyl-1-piperidinyl)propyl]-N′-(1-naphthyl)-N-phenylurea] |  |
